Data set [1] relates to rat gastric fundus strips. In words: Contraction of rat gastric fundus strips. Format: cell-based. Conditions: for relative potency of inhibition of contraction amplitude: 5HT (10 μM) present, FIG. 8. The protocol: Male and female Sprague-Dawley rats weighing 200-300 g were anesthetized with 40 mg/kg sodium pentobarbital given intraperitoneally. After deep anesthesia was obtained, exsanguination was accomplished by severing both the jugular vein and common carotid artery. The abdomen was opened at the midline and the stomach was removed, and transferred to the ice cold oxygenated Krebs' solution at pH 7.4. The stomach was dissected out and the pink pyloric end cut away from the grey fundal end. The fundal end was split open so as to form a sheet, the contents were washed away. Longitudinal muscle strips (3×20 mm) of the gastric fundus were prepared as described by Vane (Vane, Br. J. Pharmac. Chemother., 12:344, 1957). The strips were mounted under a 1-g resting tension between two parallel platinum electrodes placed inside the organ baths containing 20-ml of the gassed Krebs' solution. The Krebs' solution also contained atropine (1 μM) and guanethidine (4 μM) to block cholinergic and adrenergic involvement in response to field stimulation of intramural nerves and 5-hydroxytryptamine (5-HT, 5-10 μM) to raise the tone of the smooth muscle. In some experiments, indomethacin (10 μM) was present in Krebs' to avoid the influence of endogenous prostaglandins. Tissues were allowed to equilibrate for 1 h with changes of Krebs' solution every 10 minutes.
After the equilibration period, relaxations of smooth muscle were elicited by VIP, VIPGC, VIPGC-NO, isoproterenol and GSNO. In some experiments, the strips were incubated for 10 minutes with N^G -monomethyl L-arginine (L-NMMA).

The next data set has as its system rabbit sphincter of Oddi. Description: Contractility of isolated rabbit sphincter of Oddi. Format: cell-based. The following applies: for effect on ACh-induced contractions: ACh-pretreated (10 μM), cumulative addition, peptides 1 nM-1 μM, GSNO 0.1-100 μM; for inhibition at 100 µM: Oryctolagus cuniculus.
For another data set, the system named is rabbit aortic rings. Description: Relaxation of precontracted rabbit aortic rings (isometric tension). Format: cell-based. Conditions: for relaxation of aortic rings, cumulative additions: intact rings precontracted with phenylephrine (100 μM), 10 nM to 1 μM, FIG. 2.
In data set [2] the test system is cGMP and cAMP content of rabbit aortic rings. Description: Cyclic GMP and cyclic AMP content of rabbit aortic rings (enzyme-immunoassay). Format: cell-based. Conditions: 1 μM, FIG. 9; for cGMP content of aortic rings: at maximum relaxation.
Procedure: (§3) Frozen tissues were homogenized in ice-cold 6% trichloroacetic acid to give approximately a 10% (w/v) homogenate. The homogenates were centrifuged at 2,000 g for 15 minutes at 4° C. The supernatant fractions were decanted off the pellets and washed four times with 5 volumes of water-saturated ethyl ether, and the aqueous extracts remaining were saved for assay for cyclic GMP and AMP using enzyme-immunoassay kits (Amersham Life Science Inc., Arlington Heights, IL).
Data set [3] relates to cGMP and cAMP content of guinea pig tracheal rings. In words: Cyclic GMP and cyclic AMP content of guinea pig tracheal rings (enzyme-immunoassay). Format: cell-based. The following applies: 100 nM, n=4, FIG. 10; for cGMP content of tracheal rings: at plateau of relaxation.
Procedure: as §3
The subject of another data set is corpora cavernosa. In words: Erectile response (intracavernosal pressure) in vivo in the anesthetized dog. As for the experimental part:
(§1) Male mongrel dogs (20-30 kg) were used as the animal model. Under pentobarbital anesthesia (30 mg/kg) and mechanical respiration, a 20 gauge anglocatheter was placed into the carotid artery for measurement of systemic blood pressure. A ventral incision was made in the penis and the corpora cavernosa were exposed.
(§2) A 19 gauge minicatheter was inserted deep into the cavernosal tissue, on each corpus, for pressure measurement and delivery of either VIP, VIP-Gly-Cys-NO, VIP-Gly-Cys-NH2 or papaverine. […] Drugs were delivered intracavernosally in solution, 0.5 ml volume, at variable syringe concentrations, starting at 10^-7 M and progressively increasing the dose up to, in some instances, 10^-4 M. In most experiments, at the end, papaverine 80 mM was administered intracavernosally in order to compare this response to those elicited by VIP or its analogs. At all times systemic blood pressure was monitored, for comparison with intracavernosal pressure.

In data set [4] the test system is guinea-pig trachea. Conditions: for time for relaxation to reach a plateau: 100 nM; for effect of pretreatment with 100 nM propanol on the induced relaxation: cumulative additions, dose range 10-320 nM; for IC50: read-out: IC50 of relaxation of tracheal rings, precontracted with 10 μM methacholine, FIG. 4.
Procedure: (§4) Male Hartley guinea pigs (300-400 g) were anesthetized by use of intraperitoneal injection of pentobarbital sodium (40 mg/kg) to achieve a deep plane of anesthesia. The tracheas were dissected out, transferred to cold Krebs' solution. Tracheas were then dissected free from surrounding fat and connective tissue and cut transversely between the segments of cartilage, so as to give tracheal rings about 2 mm thick. The rings were suspended between stainless-steel hooks in the 20 ml organ baths containing the above-mentioned Krebs' solution at 37° C. The hooks were connected to the FT03C transducers. Rings were equilibrated at a basal tension of 1 g as described above and then primed twice with methacholine (100 nM). The rings were rinsed throughout after each priming exposure. Tracheal rings were not used if they could not sustain at least 1 g tension when exposed to 100 nM methacholine. The surface of organ baths was treated with 1N HCl to minimize contamination and allowed to dry in room air before Krebs' solution were added. For relaxation studies, methacholine (100 nM) was used to contract the tracheal rings and results are expressed in percentage of relaxation of methacholine-induced tone.
For data set [5] the following is noted: dog, in vivo. The protocol:
as §1, §2

Data set [6] relates to guinea-pig trachea. Description: tissue or blood. Conditions: Cavia porcellus, read-out: IC50 of relaxation of tracheal rings.
Procedure: as §4

Like-named read-outs stand apart in the source and are kept apart here. Where only a bound is given, the exact number is not on record here.

Source text for rabbit sphincter of Oddi: The preparation of rabbit sphincters of Oddi (SO) was similar to that described previously (Slivka et al. 1994) with minor modifications. Briefly, the rabbit abdomen was opened at the midline. The gall bladder, bile duct, gastric antrum and contiguous duodenum were isolated, removed en bloc, and transferred to ice cold Krebs' solution at pH 7.4. The duodenum was opened along the antimesenteric border as was the adjacent pylorus and gastric antrum. From the luminal surface, the ampulla of Vater was identified and the SO isolated on ice under an illuminated magnifier by sharp dissection.
The SO were mounted on pairs of the hooks and suspended in organ chambers containing the Krebs' solution at 37° C. Resting tension was adjusted to 1 g, and circular contractions were monitored by the FT03C force transducer and recorded on the model 7 Grass polygraphs. SO were allowed to equilibrate as described above. […] Some experiments were performed by using ACh to intensify SO contractility, and then the effects of VIP, VIPGC-NO, VIPGC and GSNO on SO contractility were tested. After each experimental observation was complete, the SO were washed at least three times with fresh Krebs' solution.

On to `NCCc1c[nH]c2ccc(O)cc12` [5HT, 5-hydroxytryptamine], for which the “effect on contractions of the strips” value in data set [1] (10 μM) is on record as “significant increase in contractions”.

Turning to `CC(=O)OCC[N+](C)(C)C` [ACh, acetylcholine], in the data set with rabbit sphincter of Oddi (10 μM, n=12), the “acceleration in phasic contractions” value stood at 69±15% and the “elevations in tonic pressure” value is 73±12%.

A word on the inhibition: it is how much of the control response was suppressed. Consider `N[C@@H](CCC(=O)N[C@@H](CSN=O)C(=O)NCC(=O)O)C(=O)O` [GSNO, S-nitrosoglutathione], for which, in the data set on rabbit aortic rings, the “relaxation of aortic rings, cumulative additions” value is given as “also observed in the rings exposed to GSNO”. Besides, the “effect on ACh-induced contractions” value in the data set on rabbit sphincter of Oddi is given as “gradually attenuated”. Further, the inhibition at 100 µM in the data set on rabbit sphincter of Oddi (ACh 10 μM, read-out: inhibition of ACh-enhanced phasic contractions) is 89 ± 5%. Besides, the inhibition at 100 µM in the data set on rabbit sphincter of Oddi (read-out: inhibition of basic contractility of sphincter of Oddi) turned out to be 91 ± 9%. For the same compound, the “relative potency of inhibition of contraction amplitude” value in data set [1] is recorded as “two least potent inhibitors”. Further, in data set [2], the “cGMP content of aortic rings” value is “significant increase in cGMP concentration” and the “cAMP content of aortic rings” value is recorded as “no significant increase in cAMP content”.

On to `CC[C@H](C)[C@H](NC(=O)[C@H](CO)NC(=O)[C@H](CC(N)=O)NC(=O)[C@H](CC(C)C)NC(=O)[C@H](Cc1ccc(O)cc1)NC(=O)[C@H](CCCCN)NC(=O)[C@H](CCCCN)NC(=O)[C@@H](NC(=O)[C@H](C)NC(=O)[C@H](CCSC)NC(=O)[C@H](CCC(N)=O)NC(=O)[C@H](CCCCN)NC(=O)[C@H](CCCNC(=N)N)NC(=O)[C@H](CC(C)C)NC(=O)[C@H](CCCNC(=N)N)NC(=O)[C@@H](NC(=O)[C@H](Cc1ccc(O)cc1)NC(=O)[C@H](CC(N)=O)NC(=O)[C@H](CC(=O)O)NC(=O)[C@@H](NC(=O)[C@H](Cc1ccccc1)NC(=O)[C@@H](NC(=O)[C@H](C)NC(=O)[C@H](CC(=O)O)NC(=O)[C@H](CO)NC(=O)[C@@H](N)Cc1c[nH]cn1)C(C)C)[C@@H](C)O)[C@@H](C)O)C(C)C)C(=O)N[C@@H](CC(C)C)C(=O)N[C@@H](CC(N)=O)C(N)=O` [VIP, vasoactive intestinal peptide], for which the “relaxation of aortic rings, cumulative additions” value in the data set on rabbit aortic rings was “certain degree of relaxation only at 1 μM”. Also, the “relaxation of phenylephrine-precontracted aortic rings” value with rabbit aortic rings (single doses (1 μM), FIG. 3) is 19±4%. Also, in the data set with rabbit sphincter of Oddi, the persistence of effect entry is recorded as “at least 90 minutes”, the “time to observed effect after addition to organ chambers” value was at most 2 min and the “effect on ACh-induced contractions” value is reported as “gradually attenuated”. Also, in the data set with rabbit sphincter of Oddi (1 μM), the “inhibition of contraction frequency” value amounted to 94±16%. In the data set with rabbit sphincter of Oddi (1 μM, ACh 10 μM), the “inhibition of ACh-enhanced phasic contractions” value is listed as 93±7%. In addition, in the data set with rabbit sphincter of Oddi (cumulative addition 1 nM-1 μM, FIG. 5, 6), the “inhibition of basic contraction frequency and amplitude” value is “inhibited both basic contraction frequency and amplitude dose-dependently”. In addition, the “irregular and incomplete contractions noted during incubation” value with rabbit sphincter of Oddi (single dose 0.1 μM, 30 minutes, n=5, FIG. 7) worked out at 40±11. Further, in data set [2], the “cGMP content of aortic rings” value is reported as “less than that of VIPGC-NO or GSNO” and the “cAMP content of aortic rings” value is listed as “no significant increase in cAMP content”. Further, in data set [3], the “cGMP content of tracheal rings” value was “significant increase in the content of cGMP” and the “cAMP content of tracheal rings” value is given as “no concomitant increases in the cAMP level”. Also, the erectile response entry in the data set with corpora cavernosa (10^-5 M, FIG. 16) is “partial and short erectile response”. Besides, the erectile response entry with corpora cavernosa (intracavernosal 10^-5 M, FIG. 13) is on record as “capable of inducing sustained penile erection”. Besides, in the data set with guinea-pig trachea [4], the “time for relaxation to reach a plateau” value is “about 20 minutes” and the “effect of pretreatment with 100 nM propanol on the induced relaxation” value was “did not antagonize”.

As usually defined, the IC50 is the midpoint of a concentration-inhibition curve. In the case of `CC[C@H](C)[C@H](NC(=O)[C@H](CO)NC(=O)[C@H](CC(N)=O)NC(=O)[C@H](CC(C)C)NC(=O)[C@H](Cc1ccc(O)cc1)NC(=O)[C@H](CCCCN)NC(=O)[C@H](CCCCN)NC(=O)[C@@H](NC(=O)[C@H](C)NC(=O)[C@H](CCSC)NC(=O)[C@H](CCC(N)=O)NC(=O)[C@H](CCCCN)NC(=O)[C@H](CCCNC(=N)N)NC(=O)[C@H](CC(C)C)NC(=O)[C@H](CCCNC(=N)N)NC(=O)[C@@H](NC(=O)[C@H](Cc1ccc(O)cc1)NC(=O)[C@H](CC(N)=O)NC(=O)[C@H](CC(=O)O)NC(=O)[C@@H](NC(=O)[C@H](Cc1ccccc1)NC(=O)[C@@H](NC(=O)[C@H](C)NC(=O)[C@H](CC(=O)O)NC(=O)[C@H](CO)NC(=O)[C@@H](N)Cc1c[nH]cn1)C(C)C)[C@@H](C)O)[C@@H](C)O)C(C)C)C(=O)N[C@@H](CC(C)C)C(=O)N[C@@H](CC(N)=O)C(=O)NCC(=O)N[C@@H](CS)C(N)=O` [VIPGC, VIP-Gly-Cys-NH2], the “diastolic blood pressure (DBP)” value in data set [5] worked out at 120 mm Hg. For the same compound, the IC50 in the data set with guinea-pig trachea [4] amounted to 59 ± 9 nM.

As for `CC[C@H](C)[C@H](NC(=O)[C@H](CO)NC(=O)[C@H](CC(N)=O)NC(=O)[C@H](CC(C)C)NC(=O)[C@H](Cc1ccc(O)cc1)NC(=O)[C@H](CCCCN)NC(=O)[C@H](CCCCN)NC(=O)[C@@H](NC(=O)[C@H](C)NC(=O)[C@H](CCSC)NC(=O)[C@H](CCC(N)=O)NC(=O)[C@H](CCCCN)NC(=O)[C@H](CCCNC(=N)N)NC(=O)[C@H](CC(C)C)NC(=O)[C@H](CCCNC(=N)N)NC(=O)[C@@H](NC(=O)[C@H](Cc1ccc(O)cc1)NC(=O)[C@H](CC(N)=O)NC(=O)[C@H](CC(=O)O)NC(=O)[C@@H](NC(=O)[C@H](Cc1ccccc1)NC(=O)[C@@H](NC(=O)[C@H](C)NC(=O)[C@H](CC(=O)O)NC(=O)[C@H](CO)NC(=O)[C@@H](N)Cc1c[nH]cn1)C(C)C)[C@@H](C)O)[C@@H](C)O)C(C)C)C(=O)N[C@@H](CC(C)C)C(=O)N[C@@H](CC(N)=O)C(=O)NCC(=O)N[C@@H](CSN=O)C(N)=O` [VIPGC-NO, VIP-Gly-Cys-NO], in data set [5], the “diastolic blood pressure (DBP)” value is on record as 120 mm Hg. The IC50 with guinea-pig trachea [4] came to 32 ± 6 nM.

Turning to `CC(C)NCC(O)c1ccc(O)c(O)c1` (stereo not shown) [isoproterenol], the “relative potency of inhibition of contraction amplitude” value in [1] was “two least potent inhibitors”. Also, in data set [3], the “cGMP content of tracheal rings” value was “no appreciable changes in the cGMP content” and the “cAMP content of tracheal rings” value is reported as “significant increase in the cAMP level”. Also, in the data set with guinea-pig trachea [4], the “time for relaxation to reach a plateau” value is on record as “about 5 minutes” and the “effect of pretreatment with 100 nM propanol on the induced relaxation” value was “blocked”. For the same compound, the IC50 with guinea-pig trachea [6] stood at 47 ± 3 nM.

These data come from patent publication US5612314A, “Nitrosylated neuropeptides” (Brigham & Women's Hospital, priority 1995, dated 1997).
